Earlier results in US20240293347A1, “COMPOSITION AND METHODS OF TREATMENT USING TRANSDERMAL HORMONE SUPPLEMENTATION” (Xygenyx Inc., priority 2023, published 2024).

What was measured:
[1] = used as penetration enhancer for transdermal drugs
[2] = in the human body

Compound | increase of drug uptake via the transdermal route (factor) [1] | biological half-life [2]
CC(C)[C@@H]1CC[C@@H](C)C[C@H]1O [Menthol] | ≥ 10 | –
CC12CCC(CC1)C(C)(C)O2 [eucalyptol, 1,8-epoxy-p-menthane] | more than 10 | –
HGH: hormone comprising a peptide chain that is synthesized in the pituitary gland | – | 10-20 minutes
